Measured values published in patent US20100130737A1, “Regulating Agent of GPR34 Receptor Function” (TAKEDA PHARMACEUTICAL COMPANY LIMITED, priority 2005, published 2010).

melting point [°C]	SMILES
187 to 189	Cc1nc(COc2ccc(CC(=O)NC3(C(=O)O)Cc4ccc(-c5ccc(Cl)cc5)cc4C3)cc2)co1 (centres unmarked) [Example B156, 5-(4-Chlorophenyl)-2-[({4-[(2-methyl-1,3-oxazol-4-yl)methoxy]phenyl}acetyl)amino]indan-2-carboxylic acid]
241 to 243	O=C(Cc1ccc(Oc2nc3ccccc3s2)cc1)NC1(C(=O)O)Cc2ccc(-c3ccc(Cl)cc3)cc2C1 (centres unmarked) [Example B158, 2-({[4-(1,3-Benzothiazol-2-yloxy)phenyl]acetyl}amino)-5-(4-chlorophenyl)indan-2-carboxylic acid]
232 to 234	O=C(Cc1ccc(Oc2ccc(F)cc2)cc1)NC1(C(=O)O)Cc2ccc(-c3ccc(Cl)cc3)cc2C1 (centres unmarked) [Example B161, 5-(4-Chlorophenyl)-2-({[4-(4-fluorophenoxy)phenyl]acetyl}amino)indan-2-carboxylic acid]
128	O=C(Cc1ccc(OCc2ccncc2)cc1)NC1(C(=O)O)Cc2ccc(-c3ccc(Cl)cc3)cc2C1 (centres unmarked) [Example B163, 5-(4-Chlorophenyl)-2-({[4-(pyridin-4-ylmethoxy)phenyl]acetyl}amino)indan-2-carboxylic acid]
226 to 228	O=C(Cc1ccc(Oc2ccsc2)cc1)NC1(C(=O)O)Cc2ccc(-c3ccc(Cl)cc3)cc2C1 (centres unmarked) [Example B164, 5-(4-Chlorophenyl)-2-({[4-(3-thienyloxy)phenyl]acetyl}amino)indan-2-carboxylic acid]
200 to 201	Cc1noc(C)c1COc1ccc(CC(=O)NC2(C(=O)O)Cc3ccc(-c4ccc(Cl)cc4)cc3C2)cc1 (centres unmarked) [Example B165]
231 to 233	COc1ccc(CC(=O)NC2(C(=O)O)Cc3ccc(-c4ccc(Cl)cc4)cc3C2)cc1 (centres unmarked) [Example B173, 5-(4-Chlorophenyl)-2-{[(4-methoxyphenyl)acetyl]amino)indan-2-carboxylic acid]
240 to 243	O=C(Cc1ccc(-c2ccccc2)cc1)NC1(C(=O)O)Cc2ccc(-c3ccc(Cl)cc3)cc2C1 (centres unmarked) [Example B177, 2-[(Biphenyl-4-ylacetyl)amino]-5-(4-chlorophenyl)indan-2-carboxylic acid]
207	O=C(Cc1cccc(OCc2ccccc2)c1)NC1(C(=O)O)Cc2ccc(-c3ccc(Cl)cc3)cc2C1 (centres unmarked) [Example B181, 2-({[3-(Benzyloxy)phenyl]acetyl}amino)-5-(4-chlorophenyl)indan-2-carboxylic acid]
227 to 228	O=C(Cc1ccc(Oc2ccccc2)cc1)NC1(C(=O)O)Cc2ccc(-c3ccc(Cl)cc3)cc2C1 (centres unmarked) [Example B183, 5-(4-Chlorophenyl)-2-{[(4-phenoxyphenyl)acetyl]amino)indan-2-carboxylic acid]
213 to 215	O=C(Cc1ccc(OCc2ccc(F)cc2)cc1)NC1(C(=O)O)Cc2ccc(-c3ccccc3Cl)cc2C1 (centres unmarked) [Example B184, 5-(2-Chlorophenyl)-2-[({4-[(4-fluorobenzyl)oxy]phenyl}acetyl}amino}indan-2-carboxylic acid]
173 to 174	O=C(Cc1ccc(OCc2ccc(F)cc2)cc1)NC1(C(=O)O)Cc2ccc(-c3cccc(Cl)c3)cc2C1 (centres unmarked) [Example B185, 5-(3-Chlorophenyl)-2-[({4-[(4-fluorobenzyl)oxy]phenyl}acetyl)amino]indan-2-carboxylic acid]
220 to 222	O=C(Cc1ccc(OCc2cccc(C(=O)O)c2)cc1)NC1(C(=O)O)Cc2ccc(-c3ccc(Cl)cc3)cc2C1 (centres unmarked) [Example B188, 2-[({4-[(3-Carboxybenzyl)oxy]phenyl}acetyl)amino]-5-(4-chlorophenyl)indan-2-carboxylic acid]
209 to 211	O=C(Cc1ccc(OCc2ccccc2C(=O)O)cc1)NC1(C(=O)O)Cc2ccc(-c3ccc(Cl)cc3)cc2C1 (centres unmarked) [Example B190, 2-[({4-[(2-Carboxybenzyl)oxy]phenyl}acetyl)amino]-5-(4-chlorophenyl)indan-2-carboxylic acid]
191 to 192	Nc1cccc(COc2ccc(CC(=O)NC3(C(=O)O)Cc4ccc(-c5ccc(Cl)cc5)cc4C3)cc2)c1 (centres unmarked) [Example B192, 2-[({4-[(3-Aminobenzyl)oxy]phenyl}acetyl)amino]-5-(4-chlorophenyl)indan-2-carboxylic acid]

Further lines, the compound ahead of its results:

SMILES	melting point [°C]
O=C(Cc1ccc(OC2CCc3ccccc32)cc1)NC1(C(=O)O)Cc2ccc(-c3ccc(Cl)cc3)cc2C1 (centres unmarked) [Example B154, 5-(4-Chlorophenyl)-2-({[4-(2,3-dihydro-1H-inden-1-yloxy)phenyl]acetyl)amino)indan-2-carboxylic acid]	194 to 195
O=C(Cc1ccc(OC2Cc3ccccc3C2)cc1)NC1(C(=O)O)Cc2ccc(-c3ccc(Cl)cc3)cc2C1 (centres unmarked) [Example B155, 5-(4-Chlorophenyl)-2-({[4-(2,3-dihydro-1H-inden-2-yloxy)phenyl]acetyl}amino)indan-2-carboxylic acid]	233 to 234
Cc1nc2ccccc2n1Cc1ccc(C(=O)NC2(C(=O)O)Cc3ccc(-c4ccc(Cl)cc4)cc3C2)cc1 (centres unmarked) [Example B157, 5-(4-Chlorophenyl)-2-({4-[(2-methyl-1H-benzimidazol-1-yl)methyl]benzoyl}amino)indan-2-carboxylic acid]	258 to 259
Cc1cccc(C)c1-c1ccc2c(c1)CC(NC(=O)Cc1ccc(OCc3ccc(F)cc3)cc1)(C(=O)O)C2 (centres unmarked) [Example B160, 5-(2,6-Dimethylphenyl)-2-[({4-[(4-fluorobenzyl)oxy]phenyl}acetyl)amino]indan-2-carboxylic acid]	210 to 212
O=C(Cc1ccc(NCc2ccc(F)cc2)cc1)NC1(C(=O)O)Cc2ccc(-c3ccc(Cl)cc3)cc2C1 (centres unmarked) [Example B162, 5-(4-Chlorophenyl)-2-[({4-[(4-fluorobenzyl)amino]phenyl}acetyl)amino]indan-2-carboxylic acid]	188 to 190
O=C(CC1CCN(C(=O)c2ccc(F)cc2)CC1)NC1(C(=O)O)Cc2ccc(-c3ccc(Cl)cc3)cc2C1 (centres unmarked) [Example B166, 5-(4-Chlorophenyl)-2-({[1-(4-fluorobenzoyl)piperidin-4-yl]acetyl}amino)indan-2-carboxylic acid]	242
O=C(CC1CCN(C(=O)Cc2ccc(F)cc2)CC1)NC1(C(=O)O)Cc2ccc(-c3ccc(Cl)cc3)cc2C1 (centres unmarked) [Example B167, 5-(4-Chlorophenyl)-2-[({1-[(4-fluorophenyl)acetyl]piperidin-4-yl}acetyl)amino]indan-2-carboxylic acid]	196
O=C(CCCSc1nc2ccccc2s1)NC1(C(=O)O)Cc2ccc(-c3ccc(Cl)cc3)cc2C1 (centres unmarked) [Example B168, 2-{[4-(1,3-Benzothiazol-2-ylthio)-butanoyl]amino}-5-(4-chlorophenyl)indan-2-carboxylic acid]	210 to 212
O=C(CSc1nc2ccccc2o1)NC1(C(=O)O)Cc2ccc(-c3ccc(Cl)cc3)cc2C1 (centres unmarked) [Example B169, 2-{[(1,3-Benzoxazol-2-ylthio)acetyl]amino}-5-(4-chlorophenyl)indan-2-carboxylic acid]	227 to 230
O=C(CCCSc1ccc2ccccc2c1)NC1(C(=O)O)Cc2ccc(-c3ccc(Cl)cc3)cc2C1 (centres unmarked) [Example B170, 5-(4-Chlorophenyl)-2-{[4-(2-naphthylthio)butanoyl]amino}indan-2-carboxylic acid]	210 to 212
O=C(CSc1ccc2ccccc2c1)NC1(C(=O)O)Cc2ccc(-c3ccc(Cl)cc3)cc2C1 (centres unmarked) [Example B171, 5-(4-Chlorophenyl)-2-{[(2-naphthylthio)acetyl]amino)indan-2-carboxylic acid]	223 to 225
O=C(CCSc1ccc2ccccc2c1)NC1(C(=O)O)Cc2ccc(-c3ccc(Cl)cc3)cc2C1 (centres unmarked) [Example B172, 5-(4-Chlorophenyl)-2-{[3-(2-naphthylthio)propanoyl]amino}indan-2-carboxylic acid]	215
O=C(Cc1c[nH]c2ccccc12)NC1(C(=O)O)Cc2ccc(-c3ccc(Cl)cc3)cc2C1 (centres unmarked) [Example B176]	209 to 211
O=C(Cc1ccccn1)NC1(C(=O)O)Cc2ccc(-c3ccc(Cl)cc3)cc2C1 (centres unmarked) [Example B178, 5-(4-Chlorophenyl)-2-[(pyridin-2-ylacetyl)amino]indan-2-carboxylic acid]	189
O=C(NC1(C(=O)O)Cc2ccc(-c3ccc(Cl)cc3)cc2C1)[C@@H](O)c1ccccc1 (stereo partly drawn) [Example B179, 5-(4-Chlorophenyl)-2-{[(2S)-2-hydroxy-2-phenylacetyl]amino}indan-2-carboxylic acid]	156
O=C(Nc1ccc(F)cc1)NC1(C(=O)O)Cc2ccc(-c3ccc(Cl)cc3)cc2C1 (centres unmarked) [Example B180, 5-(4-Chlorophenyl)-2-({[(4-fluorophenyl)amino]carbonyl}amino)indan-2-carboxylic acid]	177
O=C(Cc1ccc(OCc2ccc(F)cc2)cc1)NC1(C(=O)O)Cc2ccc(-c3ccc(Cl)s3)cc2C1 (centres unmarked) [Example B186, 5-(5-Chloro-2-thienyl)-2-[({4-[(4-fluorobenzyl)oxy]phenyl}acetyl)amino]indan-2-carboxylic acid]	214 to 216
CC(C)(C)OC(=O)c1cccc(COc2ccc(CC(=O)NC3(C(=O)O)Cc4ccc(-c5ccc(Cl)cc5)cc4C3)cc2)c1 (centres unmarked) [Example B187, 2-{[(4-{[3-(tert-Butoxycarbonyl)benzyl]oxy}phenyl)acetyl]amino}-5-(4-chlorophenyl)indan-2-carboxylic acid]	177 to 179
CC(C)(C)OC(=O)c1ccccc1COc1ccc(CC(=O)NC2(C(=O)O)Cc3ccc(-c4ccc(Cl)cc4)cc3C2)cc1 (centres unmarked) [Example B189, 2-{[(4-{[2-(tert-Butoxycarbonyl)benzyl]oxy}phenyl)acetyl]amino}-5-(4-chlorophenyl)indan-2-carboxylic acid]	170 to 171
O=C(Cc1ccc(OCc2ccc(F)cc2)cc1)NC1(c2nn[nH]n2)Cc2ccc(-c3ccc(Cl)cc3)cc2C1 (centres unmarked) [Example B191, N-[5-(4-Chlorophenyl)-2-(2H-tetrazol-5-yl)-2,3-dihydro-1H-inden-2-yl]-2-{4-[(4-fluorobenzyl)oxy]phenyl}acetamide]	108 to 110
